Values of other authors as cited in patent publication US9987252B2, “Primary amines and derivitves thereof as modulators of the 5-HT2A serotonin receptor useful for the treatment of disorders related thereto” (Arena Pharmaceuticals, Inc., priority 2006, dated 2018).

Tested on: diabetic rats
Settings: 19.8% sciatic motor conduction deficit in diabetic rats

Row | Compound | correction of sciatic motor conduction deficit
1 | O=CN1CCC(C(=O)NCCN2CCC(=C3c4ccccc4C=Cc4ccccc43)CC2)CC1 [AT-1015] | 82.6-99.7%
2 | Cc1nc2sccn2c(=O)c1CCN1CCC(=C(c2ccc(F)cc2)c2ccc(F)cc2)CC1 [ritanserin] | 82.6-99.7%
3 | COc1cccc(CCc2ccccc2OCC(CN(C)C)OC(=O)CCC(=O)O)c1 (stereo not drawn) [sarpogrelate] | 82.6-99.7%
